How the values were obtained:
lumbar motoneurons = assay: Naturally occurring lumbar motoneuron cell death in vivo; set-up: species or system chick
Method: In the first model, embryos were treated with a single dose of an ICE inhibitor or control protease inhibitor on embryonic day 8 (E8), the time of maximum naturally occurring motoneuron cell death (Hamburger et al., J. Morph. 88:49-92 (1951)). Embryos treated in vivo with the peptide inhibitors appeared to develop normally and there were no gross abnormalties. […] 24 hours after treatment there is a similar reduction in the number of pyknotic cells and a significant increase in the number of healthy motoneurons (Table 6B). […] The ability of ICE inhibitors to block the naturally occurring cell death of interdigital cells in the developing limb was also studied. These cells undergo PCD as a means of sculpting the digits in many vertebrates. When embryos were treated with either ICE inhibitor on embryonic days, E6 and E7, there was a substantial reduction in the number of pyknotic cells between the digits of the hindlimb (FIG. 14).
Peptides. Two peptide inhibitors of ICE, Acetyl-Tyr-Val-Ala-Asp-aldehyde (Ac-YVAD-CHO) and Acetyl-Tyr-Val-Ala-Asp-chloromethylketone (Ac-YVAD-CMK) and two control peptide inhibitors, Acetyl-Leu-Leu-Arg-aldehyde (Ac-LLR-CHO; Leupeptin) and n-tosyl-Lys-chloromethyl-ketone (Tos-Lys-CMK) were synthesized by Bachem Biosciences (King of Prussia, Pa.) and shown by thin layer chromatography and HPLC to be greater than 98% pure. […] Methods for administration of peptides to examine effects on naturally occurring motoneuron cell death in vivo. Although cell death of lumbar motoneurons occurs between E6 and E12, the peak period of death (i.e., the greatest number of pyknotic cells) occurs on E8 (Oppenheim et al., J Comp. Neurol. 177:87-112 (1978)). For these experiments, embryos were given a single administration of an agent on E8 0 hr and sacrificed 15 hours later. […] Ac-YVAD-CMK and Tos-Lys-CMK were administered in a solution of DMSO/BSA, whereas Ac-YVAD-CHO and leupeptin (Sigma) were in BSA alone. The solutions (50-100 μl) were dropped onto the highly vascularized chorioallantoic membrane through a window in the shell. The control groups included both DMSO and BSA or vehicle alone. Embryos were killed and staged by the Hamburger-Hamilton series (Hamburger and Hamilton, J. Morph. 88:49-92 (1951)). The thoraco-lumbar spinal cord was dissected, fixed in Camoys or Bouins fixative, processed for paraffin histology, serially sectioned (10-12 μm) and stained with either thionin or hematoxylin and eosin. Pyknotic motoneurons were identified based on criteria previously described (Chu-Wang and Oppenheim, J. Comp. Neurol. 177:33-58 (1978); Clarke and Oppenheim In Methods in Cell Biology Series; Cell Death; eds: Schwartz and Osborne. Academic Press. New York, N.Y. In press.) and were counted in every 10th or 20th section through the entire lumbar enlargement. The total number of pyknotic cells were then estimated by multiplying these values by 10 or 20. All cell counts were performed by individuals blinded with regard to drug treatment of the embryos. Methods for limb bud removal experiments. A unilateral limb bud removal was performed on E2 as described previously (Oppenheim et al., J. Comp. Neurol. 177:87-112 (1978)). Because induced cell death following limb removal begins on E5 (before that there is no difference in the number of motoneurons between the operated or unoperated sides) embryos were given one treatment of Ac-YVAD-CHO (40 μg) or BSA (control) at E5-0 hr and another at E5-12 hours (total peptide administered was 80 μg). Animals were killed at E6-0 hr. Methods were the same as described above except the section thickness was 6-8 μm (see Method for Administration of Peptides, above). Methods for limb bud interdigital regions. […]

cervical motoneurons = assay: Cervical motoneuron cell death in vivo; set-up: species or system chick
Source text: The ability of the ICE inhibitors to block cell death in two classes of neurons whose naturally occurring death appears to be independent of target interaction was also studied. First, motoneurons in the cervical spinal cord undergo PCD between E4 and E5, with maximum levels occurring at E4.5.

[1] = 24 hours post treatment, mean ±SD

Question: How did the “Pyknotic Lumbar Motoneurons on E8” value (lumbar motoneurons; 15 hours post treatment, single administration of 400 μg on E8, mean ±SD) turn out when “Acetyl-Tyr-Val-Ala-Asp-aldehyde [Ac-YVAD-CHO]” was run?
Answer: 146 ± 35

Question: And the “Healthy Motoneurons (lumbar) on E9” value (lumbar motoneurons; [1])?
Answer: 15,680 ± 684

Question: What about the “Pyknotic Motoneurons (lumbar) on E9” value (lumbar motoneurons; [1]) of the same substance?
Answer: 150 ± 30

Question: What about the “effectiveness for inhibition of motoneuron PCD in vivo” value (lumbar motoneurons; FIG. 13) of the same substance?
Answer: dose dependent

Question: And the “survival promoting effects on cervical motoneurons” value (cervical motoneurons; compared to control or Ac-LLR-CHO treated animals)?
Answer: no survival promoting effects

Question: What about the “Pyknotic Cervical Motoneurons on E4.5” value (cervical motoneurons; mean ±SD) of the same substance?
Answer: 25.9 ± 3.4

Source: patent US6939850B2, “Altered human interleukin-1β convertase (ICE), NEDD-2, and C. elegans ced-3 polypeptides and uses therefor” (Massachusetts Institute of Technology, priority 1992, dated 2005)
